The nature of data set [1]: Drug concentration (solubility) in supernatant, Experimental Example 1. The settings on record: shaken at room temperature for 24 hours, 150 mg as mirabegron; for solubility thermodynamic at 24 h: thermodynamic from solid. The format is physicochemical. On the procedure: The drug concentration (solubility) of each compound to be assayed was measured in accordance with the following method.
After the shaking, the mixtures were centrifuged at 3000 rpm for 15 minutes, and the drug concentration in each supernatant was measured.

Data set [2] can be described thus: Stability of stored suspension by dissolution test, Experimental Example 5. The format is physicochemical. The settings on record: vs before storage. As for the experimental part:
The expression “the dissolution or leakage of mirabegron is reduced or inhibited” as used herein means when the pharmaceutical composition of the present invention, which was dispersed in a solvent and has been stored, is subjected to a dissolution test in accordance with the dissolution test, method 2 (paddle method) described in the Japanese Pharmacopoeia, using 900 mL of an appropriate test solution (for example, the second fluid (JP2) described in the dissolution test of the Japanese Pharmacopoeia), for example, at a paddle rotation speed of 50-200 rpm, the change in dissolution rate is 15% or less at the maximum in comparison with the value before the storage. The change in dissolution rate is 10% or less in another embodiment, 5% or less in still another embodiment, and 3% or less in still another embodiment.
These bottles were allowed to stand in a cool place (5° C.) or under room temperature conditions for a month. The xanthan gum solution was prepared by adding xanthan gum to water at a concentration of 1 W/W % while stirring. After the storage, each suspension (25 mg as the amount of mirabegron) was used to carry out a dissolution test in accordance with the dissolution test, method 2 (paddle method) described in the Japanese Pharmacopoeia. As the test solution, 900 mL of the second fluid (JP2) described in the disintegration test of the Japanese Pharmacopoeia was used. […]

Data set [3] is described as follows: Pharmacokinetics test (dogs), fasted and fed, Experimental Example 4. The format is in vivo, male beagle dogs. The settings on record: for AUC0-10 h / Cmax: oral, 50 mg as mirabegron, plasma. As for the experimental part:
The rates of decrease of Cmax and AUC are calculated by the following equations:
Rd(Cmax)=[1−Cmax(Fed)/Cmax(Fasted)]×100
Rd(AUC)=[1−AUC(Fed)/AUC(Fasted)]×100
Rd(Cmax): Rate of decrease of Cmax (%) Cmax(Fed): Cmax in administration after food intake Cmax(Fasted): Cmax in administration in the fasted state Rd(AUC): Rate of decrease of AUC (%) AUC(Fed): AUC in administration after food intake AUC(Fasted): AUC in administration in the fasted state
The resulting suspension was orally administered to male beagle dogs using a sonde in a fasted state (Fasted) or after 30 minutes from the intake of a meal (Fed), and the drug concentration in the plasma was measured after predetermined periods of time. As the meal, 50 g of meat feed was used.

Data set [4] is described as follows: Dissolution test, paddle method, JP2, 50 rpm, Experimental Example 3. The format is physicochemical. The settings on record: 900 mL JP2, paddle 50 rpm. As for the experimental part:
The acid addition salts of the present invention prepared in Examples 4 and 5 (25 mg as the amount of mirabegron) were used to carry out a dissolution test in accordance with the dissolution test, method 2 (paddle method) described in the Japanese Pharmacopoeia. As the test solution, 900 mL of the second fluid (JP2) described in the disintegration test of the Japanese Pharmacopoeia was used. The paddle rotation speed was 50 rpm. The same dissolution test was carried out using the mixtures prepared in Comparative Examples 2 to 5.

Where [5] appears, read: in comparison with the fasted state.

Converted amounts (≈) assume the structure as drawn.

For `Nc1nc(CC(=O)Nc2ccc(CCNC[C@H](O)c3ccccc3)cc2)cs1` [Mirabegron, (R)-2-(2-aminothiazol-4-yl)-4′-{2-[(2-hydroxy-2-phenylethyl)amino]ethyl}acetanilide], the solubility (thermodynamic) at 24 h in data set [1] (10^-1 mol/L hydrochloric acid, simulated gastric fluid, 10^−1 mol/L HCl) is 12900 µg/mL (≈ 32600 µM); in data set [1] (10^-3 mol/L hydrochloric acid, aqueous buffer, 10^−3 mol/L HCl) it was 501 µg/mL (≈ 1260 µM); in data set [1] (Purified water) it was 116 µg/mL (≈ 293 µM).
Turning to `CCCCCCCCCCCCCCOS(=O)(=O)O.CCCCCCCCCCCCCCOS(=O)(=O)O.Nc1nc(CC(=O)Nc2ccc(CCNC[C@H](O)c3ccccc3)cc2)cs1` [Example 2], the “Drug concentration in supernatant” value in data set [1] (10^−1 mol/L HCl) was 19000 ng/mL; in data set [1] (10^−3 mol/L HCl) it was 30000 ng/mL; in data set [1] (Purified water), 10000 ng/mL.
Consider `CCCCCCCCCCCCOS(=O)(=O)O.CCCCCCCCCCCCOS(=O)(=O)O.Nc1nc(CC(=O)Nc2ccc(CCNC[C@H](O)c3ccccc3)cc2)cs1` [Example 1], for which the “change in dissolution rate at the maximum” value in data set [2] (suspension in xanthan gum solution stored at room temperature for a month) turned out to be 0.8%. Also, in data set [2] (suspension in xanthan gum solution stored in a cool place (5° C.) for a month), the “change in dissolution rate” value is “no change in dissolution rate was observed”. Further, in data set [3] (Fasted), the AUC0-10 h turned out to be 1027 ± 208 ng·h/mL and the peak concentration (Cmax) was 295 ± 166 ng/mL. In data set [3] (Fed (30 minutes after meal)), the AUC0-10 h was 833 ± 122 ng·h/mL and the highest concentration (Cmax) is 229 ± 86 ng/mL. Moreover, in data set [3] (setting [5]), the “rate of decrease of AUC in the fed state” value worked out at 19% and the “rate of decrease of Cmax in the fed state” value amounted to 22%.
As for `CCCCCCCCCCCCCCCCOS(=O)(=O)O.CCCCCCCCCCCCCCCCOS(=O)(=O)O.Nc1nc(CC(=O)Nc2ccc(CCNC[C@H](O)c3ccccc3)cc2)cs1` [Example 3], the “Drug concentration in supernatant” value in data set [1] (10^−1 mol/L HCl) amounted to 64000 ng/mL; in data set [1] (10^−3 mol/L HCl) it was 21000 ng/mL; in data set [1] (Purified water) it was 4000 ng/mL.
Take `CCCCCCCCCCCCOS(=O)(=O)O.Nc1nc(CC(=O)Nc2ccc(CCNCC(O)c3ccccc3)cc2)cs1` (stereo not drawn) [Example 5]: the Dissolution rate in data set [4] (2 min.) amounted to 12.8%; in data set [4] (15 min.), 41.3%.
For `CCCCCCCCCCCCOS(=O)(=O)O.CCCCCCCCCCCCOS(=O)(=O)O.Nc1nc(CC(=O)Nc2ccc(CCNCC(O)c3ccccc3)cc2)cs1` (stereo not drawn) [Example 4], the Dissolution rate in data set [4] (2 min.) amounted to 5.4%; in data set [4] (15 min.), 14.4%.

(Values after US20150031734A1, “PHARMACEUTICAL COMPOSITION CONTAINING MIRABEGRON” (ASTELLAS PHARMA INC., priority 2012, published 2015).)
